# Results as given in patent US20160022684A1, “BET INHIBITOR AND BRUTON'S TYROSINE KINASE INHIBITOR COMBINATIONS” (Pharmacyclics LLC, priority 2014, published 2016).
# How the values were obtained:
# SU-DHL-2 = assay: Combined drug treatment cell viability (CellTiter-Glo), ibrutinib with BET inhibitors, SU-DHL-2; type: cell-based; conditions: JQ1 100 nM, 3 days
# Method in brief: (§1)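 Viability read by CellTiter-Glo luminescence at room temperature; drug interaction expressed as combination index (CI).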
# TMD8 = assay: Combined drug treatment cell viability (CellTiter-Glo), ibrutinib with BET inhibitors, TMD8; type: cell-based; conditions: JQ1 20 nM, 3 days
# Method in brief: as §1
# YAC-1 (target cells) = assay: NK cell cytotoxicity of splenocytes from treated mice (A20 model); type: in vivo; conditions: combination of JQ1 with ibrutinib, splenocytes after 14 days of treatment, co-cultured with YAC-1 for 4 hours
# Procedure: To determine the drug effect on NK cell cytotoxicity, splenocytes (effector cells) were harvested from mice after 14 days of treatment. The splenocytes were co-cultured with YAC-1 (target cells) for 4 hours. The percentage of target cell death (PI-positive cells) was analyzed by flow cytometry.
# OCI-LY3 = assay: Combined drug treatment cell viability (CellTiter-Glo), ibrutinib with BET inhibitors, OCI-LY3; type: cell-based; conditions: OCI-LY-3, JQ1 1 uM, 3 days
# Method in brief: as §1
# OCI-LY10 = assay: Combined drug treatment cell viability (CellTiter-Glo), ibrutinib with BET inhibitors, OCI-LY10; type: cell-based; conditions: OCI-LY-10, JQ1 1 uM, 3 days
# Method in brief: as §1
# U-2932 = assay: Combined drug treatment cell viability (CellTiter-Glo), ibrutinib with BET inhibitors, U-2932; type: cell-based; conditions: U2932, JQ1 20 nM, 3 days
# Method in brief: as §1
# [1] = ibrutinib 0 nM (BET inhibitor alone): I-BET151 5 uM, OTX015 1 uM
# [2] = ibrutinib 0.0256 nM with I-BET151 5 uM, OTX015 1 uM or medium alone (row)
# [3] = ibrutinib 0.64 nM with I-BET151 5 uM, OTX015 1 uM or medium alone (row)
# [4] = ibrutinib 3.2 nM with I-BET151 5 uM, OTX015 1 uM or medium alone (row)
# [5] = ibrutinib 16 nM with I-BET151 5 uM, OTX015 1 uM or medium alone (row)
# [6] = ibrutinib 80 nM with I-BET151 5 uM, OTX015 1 uM or medium alone (row)
# [7] = ibrutinib 400 nM with I-BET151 5 uM, OTX015 1 uM or medium alone (row)
# [8] = ibrutinib 2000 nM with I-BET151 5 uM, OTX015 1 uM or medium alone (row)
# [9] = ibrutinib 10000 nM with I-BET151 5 uM, OTX015 1 uM or medium alone (row)
# [10] = ibrutinib […] with I-BET151 5 uM, OTX015 1 uM or medium alone (row)
compound,measurement,setting,value
Cc1sc2c(c1C)C(c1ccc(Cl)cc1)=N[C@@H](CC(=O)OC(C)(C)C)c1nnc(C)n1-2 [JQ1],luminescent signals,"SU-DHL-2; ibrutinib 0 nM (BET inhibitor alone): I-BET151 2 uM, OTX015 1 uM (Table 2)",17739.9
same,luminescent signals,"SU-DHL-2; ibrutinib 0.0256 nM with I-BET151 2 uM, OTX015 1 uM (Table 2) or medium alone (row)",22662.83
same,luminescent signals,"SU-DHL-2; ibrutinib 0.64 nM with I-BET151 2 uM, OTX015 1 uM (Table 2) or medium alone (row)",19308.19
same,luminescent signals,"SU-DHL-2; ibrutinib 3.2 nM with I-BET151 2 uM, OTX015 1 uM (Table 2) or medium alone (row)",25589.27
same,luminescent signals,"SU-DHL-2; ibrutinib 16 nM with I-BET151 2 uM, OTX015 1 uM (Table 2) or medium alone (row)",20485.07
same,luminescent signals,"SU-DHL-2; ibrutinib 80 nM with I-BET151 2 uM, OTX015 1 uM (Table 2) or medium alone (row)",19823.08
same,luminescent signals,"SU-DHL-2; ibrutinib 400 nM with I-BET151 2 uM, OTX015 1 uM (Table 2) or medium alone (row)",23679.47
same,luminescent signals,"SU-DHL-2; ibrutinib 2000 nM with I-BET151 2 uM, OTX015 1 uM (Table 2) or medium alone (row)",29411.5
same,luminescent signals,"SU-DHL-2; ibrutinib 10000 nM with I-BET151 2 uM, OTX015 1 uM (Table 2) or medium alone (row)",3706.648
same,luminescent signals,"SU-DHL-2; ibrutinib […] with I-BET151 2 uM, OTX015 1 uM (Table 2) or medium alone (row)",19174.22
same,luminescent signals,"TMD8; ibrutinib 0 nM (BET inhibitor alone): I-BET151 200 nM, OTX015 100 nM",59694.27
same,luminescent signals,"TMD8; ibrutinib 0.0256 nM with I-BET151 200 nM, OTX015 100 nM or medium alone (row)",18249.87
same,luminescent signals,"TMD8; ibrutinib 0.64 nM with I-BET151 200 nM, OTX015 100 nM or medium alone (row)",16842.39
same,luminescent signals,"TMD8; ibrutinib 3.2 nM with I-BET151 200 nM, OTX015 100 nM or medium alone (row)",16468.11
same,luminescent signals,"TMD8; ibrutinib 16 nM with I-BET151 200 nM, OTX015 100 nM or medium alone (row)",16312.6
same,luminescent signals,"TMD8; ibrutinib 80 nM with I-BET151 200 nM, OTX015 100 nM or medium alone (row)",15297.84
same,luminescent signals,"TMD8; ibrutinib 400 nM with I-BET151 200 nM, OTX015 100 nM or medium alone (row)",15282.03
same,luminescent signals,"TMD8; ibrutinib 2000 nM with I-BET151 200 nM, OTX015 100 nM or medium alone (row)",15571.96
same,luminescent signals,"TMD8; ibrutinib 10000 nM with I-BET151 200 nM, OTX015 100 nM or medium alone (row)",9818.137
same,luminescent signals,"TMD8; ibrutinib […] with I-BET151 200 nM, OTX015 100 nM or medium alone (row)",18911.45
same,"NK cytotoxicity (percentage of target cell death, PI-positive cells)",YAC-1 (target cells),enhanced NK cytotoxicity
same,luminescent signals,OCI-LY3; [1],20530.28
same,luminescent signals,OCI-LY3; [2],21973.49
same,luminescent signals,OCI-LY3; [3],23078.2
same,luminescent signals,OCI-LY3; [4],22419.57
same,luminescent signals,OCI-LY3; [5],21821.3
same,luminescent signals,OCI-LY3; [6],21944.63
same,luminescent signals,OCI-LY3; [7],22621.62
same,luminescent signals,OCI-LY3; [8],24841.54
same,luminescent signals,OCI-LY3; [9],21414.57
same,luminescent signals,OCI-LY3; [10],22582.26
same,luminescent signals,OCI-LY10; [1],41458.59
same,luminescent signals,OCI-LY10; [2],45492.43
same,luminescent signals,OCI-LY10; [3],52166.4
same,luminescent signals,OCI-LY10; [4],39783.52
same,luminescent signals,OCI-LY10; [5],26164.72
same,luminescent signals,OCI-LY10; [6],24844.65
same,luminescent signals,OCI-LY10; [7],24502.8
same,luminescent signals,OCI-LY10; [8],24579.06
same,luminescent signals,OCI-LY10; [9],25346.91
same,luminescent signals,OCI-LY10; [10],47932.71
same,luminescent signals,"U-2932; ibrutinib 0 nM (BET inhibitor alone): I-BET151 200 nM, OTX015 50 nM (Table 2)",55050.2
same,luminescent signals,"U-2932; ibrutinib 0.0256 nM with I-BET151 200 nM, OTX015 50 nM (Table 2) or medium alone (row)",52636.54
same,luminescent signals,"U-2932; ibrutinib 0.64 nM with I-BET151 200 nM, OTX015 50 nM (Table 2) or medium alone (row)",46610.32
same,luminescent signals,"U-2932; ibrutinib 3.2 nM with I-BET151 200 nM, OTX015 50 nM (Table 2) or medium alone (row)",47334.95
same,luminescent signals,"U-2932; ibrutinib 16 nM with I-BET151 200 nM, OTX015 50 nM (Table 2) or medium alone (row)",46417.97
same,luminescent signals,"U-2932; ibrutinib 80 nM with I-BET151 200 nM, OTX015 50 nM (Table 2) or medium alone (row)",49232.14
same,luminescent signals,"U-2932; ibrutinib 400 nM with I-BET151 200 nM, OTX015 50 nM (Table 2) or medium alone (row)",44892.31
same,luminescent signals,"U-2932; ibrutinib 2000 nM with I-BET151 200 nM, OTX015 50 nM (Table 2) or medium alone (row)",44099.18
same,luminescent signals,"U-2932; ibrutinib 10000 nM with I-BET151 200 nM, OTX015 50 nM (Table 2) or medium alone (row)",33551.32
same,luminescent signals,"U-2932; ibrutinib […] with I-BET151 200 nM, OTX015 50 nM (Table 2) or medium alone (row)",54454.69
